Data set [1] in a line: Stability of the compound in human plasma assessed as half life at 1 uM by LC-MS/MS analysis. It is filed as ADME, cell-free.
The nature of data set [2]: Binding affinity to human StrepTag-Avi-CRBN-His6-Spy-fused DDB1deltaB mutant complex expressed in baculovirus infected high-five insect cells assessed as labeling of His353 residue at 15 uM measured after 24 hrs by LC-MS analysis relative to control. Particulars: Insect cell.
Data set [3] in a line: Cytotoxicity against human MOLT-4 cells assessed as reduction in cell viability incubated for 24 hrs by CellTiter Glo Luminescent cell viability assay. It is filed as toxicity, cell-based. For orientation: Cellular ATP, detected with luciferase, serves as a proxy for viable cell number.
The nature of data set [4]: Stability of the compound in human liver microsomes assessed as half life at 1 uM by LC-MS/MS analysis. It is filed as ADME, Microsome.
Data set [5] in a line: Stability of the compound in human hepatocytes assessed as half life at […] by LC-MS/MS analysis. The class given is ADME, cell-based, Hepatocyte.
A further data set deals with MOLT-4. Kind of data set: Induction of protein degradation in human MOLT-4 cells at 1 uM measured after 5 hrs by LC-MS analysis. It is filed as functional, cell-based.
Data set [6] in a line: Drug metabolism in human plasma assessed as glutarimide-hydrolysis at 10 uM measured after 120 mins by LC-UV-MS analysis. It is filed as ADME, cell-free. Particulars: 2 h.
A short description of data set [7]: Drug metabolism in human plasma assessed as sulfonyl imidazole motif hydrolysis at 10 uM measured after 120 mins by LC-UV-MS analysis. To be noted: 2 h. It is filed as ADME, cell-free.
Another data set concerns the target Protein cereblon (Homo sapiens, UniProt Q96SW2). Kind of data set: Displacement of BODIPY-lenalidomide from human N-terminal NanoLuc-fused CRBN expressed in HEK293T cells incubated for 2 hrs by NanoBRET assay. It is filed as cell-based. For orientation: In BRET a luciferase serves as donor, and the signal depends on an acceptor being close.

Activity calls are given as the source filed them.

Protein cereblon, sequence (Q96SW2 whole entry, the tested form may be a part): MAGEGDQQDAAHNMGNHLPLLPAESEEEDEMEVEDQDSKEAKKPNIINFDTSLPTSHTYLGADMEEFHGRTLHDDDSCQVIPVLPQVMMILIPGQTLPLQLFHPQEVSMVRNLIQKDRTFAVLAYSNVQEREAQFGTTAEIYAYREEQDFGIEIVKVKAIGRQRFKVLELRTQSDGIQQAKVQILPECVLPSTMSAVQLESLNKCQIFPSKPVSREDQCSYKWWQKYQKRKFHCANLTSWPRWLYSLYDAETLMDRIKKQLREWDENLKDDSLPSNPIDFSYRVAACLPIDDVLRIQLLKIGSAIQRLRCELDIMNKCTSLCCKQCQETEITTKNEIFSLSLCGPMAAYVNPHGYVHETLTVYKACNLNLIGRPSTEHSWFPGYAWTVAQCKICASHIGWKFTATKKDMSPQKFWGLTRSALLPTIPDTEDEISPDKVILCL

Usually half-life stands for the time needed for the level to fall by half in the phase considered. On to `O=C1CCC(N2Cc3ccc(S(=O)(=O)n4cnc(F)c4)cc3C2=O)C(=O)N1` (centres undefined), for which the half-life at 1 µM in data set [1] amounted to 0.317 h. Further, in [2], the Activity came out at 90%.

Take `O=C1CCC(N2Cc3ccc(OS(=O)(=O)F)cc3C2=O)C(=O)N1` (centres undefined): in data set [2], the Activity came to 75%.

For `Cc1cn(S(=O)(=O)c2ccc3c(c2)C(=O)N(C2CCC(=O)NC2=O)C3)cn1` (centres undefined), the half-life at 1 µM in data set [1] came out at 4.78 h. In data set [2], the Activity is less than 5%.

As a reminder, the CC50 is the concentration giving 50% cytotoxicity. Take `O=C1CCC(N2Cc3ccc(S(=O)(=O)n4ccnc4)cc3C2=O)C(=O)N1` (centres undefined): the CC50 at 24 h in data set [3] is more than 10 µM. Besides, the half-life at 1 µM is more than 2.42 h in [4] and 1.57 h in [1]. Further, the half-life in data set [5] was more than 3.62 h. Further, in the data set with MOLT-4, the outcome was inactive. Further, in [2], the Activity was more than 95%.

In the case of `Cc1cnn(S(=O)(=O)c2ccc3c(c2)C(=O)N(C2CCC(=O)NC2=O)C3)c1` (centres undefined), the half-life at 1 µM in data set [1] is more than 4.82 h. The Activity in data set [2] is less than 5%.

On to `O=C1CCC(N2Cc3ccc(S(=O)(=O)n4ccc(F)n4)cc3C2=O)C(=O)N1` (centres undefined), for which the half-life at 1 µM in [1] stood at 1.92 h. Further, the Activity in [2] was 37%.

On to `O=C1CCC(N2Cc3ccc(S(=O)(=O)n4nccn4)cc3C2=O)C(=O)N1` (centres undefined), for which, in [2], the Activity came out at 90%.

In the case of `Cc1cn(S(=O)(=O)c2ccc3c(c2)C(=O)N(C2CCC(=O)NC2=O)C3)c(=O)[nH]c1=O` (centres undefined), the half-life at 1 µM in data set [1] worked out at 3.98 h. Further, the Activity in [2] was determined as 90%.

Consider `O=C1CCC(N2Cc3ccc(S(=O)(=O)n4ccc(C(F)(F)F)n4)cc3C2=O)C(=O)N1` (centres undefined), for which the half-life at 1 µM in [1] worked out at 0.233 h. Besides, in data set [2], the Activity amounted to 90%.

Take `O=C1CCC(N2Cc3ccc(S(=O)(=O)n4cc(C(F)(F)F)cn4)cc3C2=O)C(=O)N1` (centres undefined): in data set [1], the half-life at 1 µM amounted to 0.167 h. In [2], the Activity was determined as 90%.

As to `O=C1CCC(N2Cc3ccc(S(=O)(=O)n4cc(F)cn4)cc3C2=O)C(=O)N1` (centres undefined), in [1], the half-life at 1 µM came out at 1.53 h. In addition, in data set [2], the Activity stood at 67%.

Take `O=C1CCC(N2Cc3ccc(S(=O)(=O)n4ccc(=O)[nH]c4=O)cc3C2=O)C(=O)N1` (centres undefined): the half-life at 1 µM in data set [1] was found to be 2.72 h. For the same molecule, the Activity in data set [2] worked out at 90%.

For `O=C1CCC(N2Cc3ccccc3C2=O)C(=O)N1` (centres undefined), the 50% cytotoxic concentration (CC50) at 24 h in data set [3] is more than 10 µM. The half-life at 1 µM in data set [4] is more than 2.42 h. Also, the Drug metabolism result in data set [6] and in data set [7] was “Metabolite_Detected” in each case. Further, the half-life in data set [5] was more than 3.62 h.

`O=C1CCC(N2Cc3ccc(S(=O)(=O)n4cncn4)cc3C2=O)C(=O)N1` (centres undefined): the half-life at 1 µM in [1] is less than 0.0167 h. The Activity in data set [2] worked out at 90%.

Consider `O=C1CCC(N2Cc3ccc(S(=O)(=O)n4cnc(C(F)(F)F)c4)cc3C2=O)C(=O)N1` (centres undefined), for which, in [1], the half-life at 1 µM came out at 0.108 h. For the same molecule, the Activity in data set [2] came out at 75%.

As usually defined, the IC50 is the concentration that inhibits the measured activity by half. A lower IC50 goes with inhibition by little substance. `O=C1CCC(N2Cc3ccc(S(=O)(=O)F)cc3C2=O)C(=O)N1` (centres undefined) returned an IC50 at Protein cereblon of 0.0011 µM. Further, the Activity in data set [2] is more than 95%.

Consider `Nc1ccn(S(=O)(=O)c2ccc3c(c2)C(=O)N(C2CCC(=O)NC2=O)C3)c(=O)n1` (centres undefined), for which, in data set [1], the half-life at 1 µM is more than 4.82 h. Further, in data set [2], the Activity turned out to be 55%.
